Measured values published in ChEMBL document CHEMBL1201862, “PubChem BioAssay data set” (2004).
Values belong to the compound of their own block, whether it stands above or below them. Active and inactive are the calls of the source.

Key:
[1] = target: T1, Short transient receptor potential channel 4 (Mus musculus, UniProt Q9QUQ5); experiment: calcium entry via TRPC4 opening agents – cell-based, HEK293 TRPC4/mu-opioid, Fluo-4 calcium, dose response (AID 434937); assay type: functional
T1 sequence (Q9QUQ5 whole entry): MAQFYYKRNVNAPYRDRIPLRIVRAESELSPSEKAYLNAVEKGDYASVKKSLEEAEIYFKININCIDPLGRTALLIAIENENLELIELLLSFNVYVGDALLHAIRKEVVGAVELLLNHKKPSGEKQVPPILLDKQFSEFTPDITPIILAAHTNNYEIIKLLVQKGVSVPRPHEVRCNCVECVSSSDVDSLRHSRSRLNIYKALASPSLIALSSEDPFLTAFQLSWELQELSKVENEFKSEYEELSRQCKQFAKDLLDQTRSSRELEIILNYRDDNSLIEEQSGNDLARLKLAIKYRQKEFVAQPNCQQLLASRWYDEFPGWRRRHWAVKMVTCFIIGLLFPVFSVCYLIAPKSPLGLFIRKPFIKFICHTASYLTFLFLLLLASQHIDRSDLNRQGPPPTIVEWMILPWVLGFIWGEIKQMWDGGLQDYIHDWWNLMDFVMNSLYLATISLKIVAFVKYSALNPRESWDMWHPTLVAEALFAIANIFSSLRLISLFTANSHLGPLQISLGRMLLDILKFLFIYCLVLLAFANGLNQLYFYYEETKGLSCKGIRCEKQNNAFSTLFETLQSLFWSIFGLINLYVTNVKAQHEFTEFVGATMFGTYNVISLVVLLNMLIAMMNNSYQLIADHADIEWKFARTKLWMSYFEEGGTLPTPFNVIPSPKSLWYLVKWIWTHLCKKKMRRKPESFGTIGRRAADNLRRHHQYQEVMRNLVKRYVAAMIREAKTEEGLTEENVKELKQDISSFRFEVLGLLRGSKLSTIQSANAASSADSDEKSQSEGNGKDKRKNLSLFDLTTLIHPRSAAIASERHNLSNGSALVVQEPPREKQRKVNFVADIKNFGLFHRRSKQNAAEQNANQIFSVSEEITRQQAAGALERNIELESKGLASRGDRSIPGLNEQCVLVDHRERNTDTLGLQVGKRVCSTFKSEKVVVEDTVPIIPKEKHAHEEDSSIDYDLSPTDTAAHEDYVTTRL

[2] = target: Delta-type opioid receptor (Homo sapiens, UniProt P41143); experiment: Counterscreen for agonists of heterodimerization of the mu 1 (OPRM1) and delta 1 (OPRD1) opioid receptors: Luminescence-based cell-based high throughput dose response assay to identify agonists of OPRD1 homodimerization. [Related pubchem assays (depositor defined):AID504326, AID504355, AID504692, AID504904, AID504905]; assay type: functional
Delta-type opioid receptor, sequence (P41143 whole entry): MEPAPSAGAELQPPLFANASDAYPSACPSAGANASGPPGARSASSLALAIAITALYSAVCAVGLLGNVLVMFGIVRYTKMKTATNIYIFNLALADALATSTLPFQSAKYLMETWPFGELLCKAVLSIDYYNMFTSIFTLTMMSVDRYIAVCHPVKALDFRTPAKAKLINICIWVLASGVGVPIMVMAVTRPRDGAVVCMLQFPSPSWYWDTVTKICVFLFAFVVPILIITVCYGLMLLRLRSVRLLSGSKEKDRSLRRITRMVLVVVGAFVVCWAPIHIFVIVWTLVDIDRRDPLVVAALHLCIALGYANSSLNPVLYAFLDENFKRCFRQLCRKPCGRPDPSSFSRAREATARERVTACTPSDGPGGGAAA

Mu-type opioid receptor = Mu-type opioid receptor (Homo sapiens, UniProt P35372); experiment: Counterscreen for agonists of heterodimerization of the mu 1 (OPRM1) and delta 1 (OPRD1) opioid receptors: Luminescence-based cell-based high throughput dose response assay to identify agonists of OPRM1 homodimerization.; assay type: functional;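 note: U2OS cells expressing OPRM1 and beta-arrestin as split beta-galactosidase partners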
Mu-type opioid receptor, sequence (P35372 whole entry): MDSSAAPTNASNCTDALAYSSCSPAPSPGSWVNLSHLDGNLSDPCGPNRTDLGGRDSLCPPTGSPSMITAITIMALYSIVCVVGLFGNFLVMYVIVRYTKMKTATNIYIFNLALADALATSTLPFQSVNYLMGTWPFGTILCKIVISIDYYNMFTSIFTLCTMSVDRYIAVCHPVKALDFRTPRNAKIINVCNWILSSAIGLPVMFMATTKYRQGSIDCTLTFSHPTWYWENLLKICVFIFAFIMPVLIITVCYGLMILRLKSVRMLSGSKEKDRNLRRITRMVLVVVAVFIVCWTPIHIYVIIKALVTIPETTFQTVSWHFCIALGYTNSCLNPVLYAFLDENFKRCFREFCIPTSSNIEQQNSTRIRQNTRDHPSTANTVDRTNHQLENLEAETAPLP

[3] = target: 5-hydroxytryptamine receptor 5A (Homo sapiens, UniProt P47898); experiment: Counterscreen for agonists of OPRM1-OPRD1 heterodimerization: luminescence-based cell-based high throughput dose response assay to identify agonists of 5-hydroxytryptamine (serotonin) 5A receptor (HTR5A). [Related pubchem assays (depositor defined):AID504326, AID504355, AID504692, AID504904, AID504905]; assay type: functional
5-hydroxytryptamine receptor 5A, sequence (P47898 whole entry): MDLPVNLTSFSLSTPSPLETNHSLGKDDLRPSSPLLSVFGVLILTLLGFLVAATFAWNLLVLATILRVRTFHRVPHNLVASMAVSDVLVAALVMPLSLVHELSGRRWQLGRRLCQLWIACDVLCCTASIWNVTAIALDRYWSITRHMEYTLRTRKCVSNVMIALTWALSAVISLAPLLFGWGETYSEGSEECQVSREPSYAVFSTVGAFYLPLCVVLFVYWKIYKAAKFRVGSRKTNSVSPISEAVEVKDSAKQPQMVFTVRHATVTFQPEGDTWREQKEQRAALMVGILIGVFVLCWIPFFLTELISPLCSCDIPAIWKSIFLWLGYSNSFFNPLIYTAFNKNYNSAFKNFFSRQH

[4] = target: T2, Low molecular weight phosphotyrosine protein phosphatase (Homo sapiens, UniProt P24666); assay type: functional; details: read-out: IC50_Mean;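 note: Dose-response confirmation assay measuring inhibition of LMPTP enzyme activity by fluorescence intensity read-out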
T2 sequence (P24666 whole entry): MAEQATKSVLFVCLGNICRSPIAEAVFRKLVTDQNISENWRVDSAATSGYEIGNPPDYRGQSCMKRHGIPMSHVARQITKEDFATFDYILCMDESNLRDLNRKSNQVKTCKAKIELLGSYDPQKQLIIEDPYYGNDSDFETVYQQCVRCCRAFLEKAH

[5] = viability loss in THP-1 monocytes – THP-1 cells, cytotoxicity control for Vif-APOBEC3G degradation inhibitor project, dose response (AID 1117359); assay type: functional; details: THP-1
[6] = target: Disintegrin and metalloproteinase domain-containing protein 17 (Homo sapiens, UniProt P78536); experiment: exosite inhibitors of ADAM17, dose response, biochemical (AID 743260)
Disintegrin and metalloproteinase domain-containing protein 17, sequence (P78536 whole entry, the tested form may be a part): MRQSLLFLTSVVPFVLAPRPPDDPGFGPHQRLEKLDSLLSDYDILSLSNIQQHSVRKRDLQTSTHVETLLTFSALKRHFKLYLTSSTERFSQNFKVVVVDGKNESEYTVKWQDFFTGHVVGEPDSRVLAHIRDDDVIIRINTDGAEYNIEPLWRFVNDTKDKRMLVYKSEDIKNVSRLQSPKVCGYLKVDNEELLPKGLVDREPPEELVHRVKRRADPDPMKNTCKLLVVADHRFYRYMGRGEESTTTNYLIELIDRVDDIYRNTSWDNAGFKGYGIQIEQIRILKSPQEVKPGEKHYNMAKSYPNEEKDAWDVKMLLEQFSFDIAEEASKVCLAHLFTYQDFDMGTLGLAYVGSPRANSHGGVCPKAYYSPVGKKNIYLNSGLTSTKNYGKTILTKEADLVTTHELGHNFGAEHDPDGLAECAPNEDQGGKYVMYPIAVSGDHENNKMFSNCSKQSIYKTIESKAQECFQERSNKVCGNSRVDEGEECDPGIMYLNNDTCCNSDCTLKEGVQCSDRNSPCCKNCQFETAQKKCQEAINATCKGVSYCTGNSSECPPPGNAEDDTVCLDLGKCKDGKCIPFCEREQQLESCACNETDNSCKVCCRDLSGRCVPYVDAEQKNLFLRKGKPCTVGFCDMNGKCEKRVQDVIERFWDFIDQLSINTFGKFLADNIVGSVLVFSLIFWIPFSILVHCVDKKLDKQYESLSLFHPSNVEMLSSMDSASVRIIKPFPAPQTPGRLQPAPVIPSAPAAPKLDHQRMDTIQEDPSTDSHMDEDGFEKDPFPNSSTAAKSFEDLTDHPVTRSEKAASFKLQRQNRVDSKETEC

[7] = inhibition of ADAM10 peptide cleavage – biochemical, FRET peptide substrate, recombinant human ADAM10, selectivity assay for ADAM17 exosite inhibitor project, dose response (AID 743259);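 note: ADAM10 enzyme cleaving a FRET peptide substrate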
Paired box protein Pax-8 = Paired box protein Pax-8 (Homo sapiens, UniProt Q06710); experiment: PAX8 transcriptional activity inhibition in RMG-I – RMG-I cells, luciferase, cherry-pick, dose response (AID 687027); assay type: functional, cell-based;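 note: luciferase reporter driven by Pax8 target thyroperoxidase promoter measured by SteadyGlo luminescence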
Paired box protein Pax-8, sequence (Q06710 whole entry): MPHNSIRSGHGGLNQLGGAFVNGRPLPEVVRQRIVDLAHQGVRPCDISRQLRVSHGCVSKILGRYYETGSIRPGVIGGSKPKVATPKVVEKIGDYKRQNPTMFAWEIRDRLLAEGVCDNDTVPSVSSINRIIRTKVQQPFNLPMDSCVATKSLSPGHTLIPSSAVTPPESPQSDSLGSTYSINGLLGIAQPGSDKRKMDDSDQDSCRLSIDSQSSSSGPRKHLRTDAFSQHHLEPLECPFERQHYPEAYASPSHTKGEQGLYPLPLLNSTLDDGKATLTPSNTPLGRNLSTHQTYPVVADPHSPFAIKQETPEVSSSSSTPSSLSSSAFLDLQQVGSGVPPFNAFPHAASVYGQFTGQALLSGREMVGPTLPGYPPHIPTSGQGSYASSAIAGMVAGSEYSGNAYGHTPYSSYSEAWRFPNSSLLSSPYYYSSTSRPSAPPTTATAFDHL

[8] = OVCAR-3 cell viability loss – plate reader, dry powder samples, PAX8 inhibitor project, dose response (AID 743044); assay type: functional, cell-based
[9] = OVCAR8 cell viability loss – plate reader, dry powder samples, PAX8 project, dose response (AID 743197); assay type: functional, cell-based; details: OVCAR-8
[10] = target: Induced myeloid leukemia cell differentiation protein Mcl-1 (Homo sapiens, UniProt Q07820); assay type: functional
Induced myeloid leukemia cell differentiation protein Mcl-1, sequence (Q07820 whole entry): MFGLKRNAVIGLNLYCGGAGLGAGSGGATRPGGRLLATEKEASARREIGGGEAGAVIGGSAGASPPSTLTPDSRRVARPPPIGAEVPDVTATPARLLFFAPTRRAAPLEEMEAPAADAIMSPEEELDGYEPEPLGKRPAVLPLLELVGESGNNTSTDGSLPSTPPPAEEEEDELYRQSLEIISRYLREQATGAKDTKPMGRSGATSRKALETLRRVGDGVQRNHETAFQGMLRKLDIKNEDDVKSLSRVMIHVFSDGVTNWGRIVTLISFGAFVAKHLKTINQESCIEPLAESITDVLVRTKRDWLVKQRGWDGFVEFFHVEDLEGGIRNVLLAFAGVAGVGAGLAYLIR

[11] = growth inhibition of yeast DHODH-expressing 3D7 parasites – SYBR Green, dry powder samples, dose response (AID 1159570); assay type: functional, cell-based;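 note: parasite growth measured after 72 hours of compound exposure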
[12] = toxicity to human HepG2 hepatoma cells – cell-based, plate reader, dry powder samples, cytotoxicity control, dose response (AID 1159569); assay type: functional;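 note: inhibitor potency with signal falling toward the positive control level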
[13] = P. falciparum Dd2 growth inhibitors, dose response, SYBR Green, cherry-picked samples (AID 1159567); assay type: functional, cell-based
[14] = Dd2 malaria parasite growth inhibition potency – SYBR Green, dry powder samples, dose response (AID 1159566); assay type: functional, cell-based;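 note: potency for growth inhibition with lower SYBR green DNA signal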
[15] = growth inhibition of PfATP4-mutant resistant parasites – NITD609-resistant line, SYBR Green, dry powder, dose response (AID 1159571); assay type: functional, cell-based;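 note: parasites synchronized at ring stage by sorbitol before testing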

EC50 [1]: 1.88 µM (active) | EC50 [2]: > 92.5 µM (inactive) | EC50 (Mu-type opioid receptor): > 92.5 µM (inactive) | EC50 [3]: > 92.5 µM (inactive)
SMILES: Cc1cccc2cc(C(c3nnnn3Cc3ccccc3)N3CCN(C)CC3)c(O)nc12 (centres undefined)

IC50 [4]: 6.19 µM (active)
SMILES: O=c1cc(-c2ccsc2)oc2cc(-c3ccc4c(c3)OCO4)ccc12

SMILES: O=C(Nc1nc(-c2ccco2)c(-c2ccco2)s1)c1ccc(F)cc1F
CC50 [5]: > 40 µM (active)

SMILES: Cc1nn(C)cc1CNC(=O)C1C2CCC(C2)C1C(=O)O (centres undefined)
CC50 [5]: > 40 µM (active)

IC50 [6]: > 69.5 µM (inactive)
SMILES: CCOC(=O)/C=C1\CN(Cc2ccc(OC)cc2)S(=O)(=O)c2ccccc21
IC50 [7]: > 69.5 µM (inactive)

SMILES: C[C@@H]1CN([C@H](C)CO)S(=O)(=O)c2ccc(C#CC3CCCC3)cc2O[C@H]1CN(C)Cc1cccnc1
AC50 (Paired box protein Pax-8): 12.5 µM (active) | AC50 [8]: 26.2 µM (active) | AC50 [9]: 50.2 µM (active)

SMILES: COc1ccccc1C(=O)Nc1ccc2c(c1)C(=O)N(C)[C@@H]1CC[C@@H](CC(=O)NCc3ccc(Cl)c(Cl)c3)O[C@H]1CO2
AC50 (Paired box protein Pax-8): 1.57 µM (active) | AC50 [8]: 40.8 µM (active) | AC50 [9]: 55.9 µM (active)

IC50 [6]: > 69.6 µM (inactive)
SMILES: O=C(CN1CCN(c2nc(-c3ccccc3)cs2)CC1)Nc1ccc(Cl)c(Cl)c1
IC50 [7]: 37.8 µM (inactive)

IC50 [10]: 3.28 µM (active)
SMILES: CC(C)c1ccc(S(=O)(=O)/N=C2/C=CC(=O)c3ccccc32)cc1
CC50 [5]: 18.2 µM (active)

SMILES: COCc1cn([C@@H]2C[C@@H]3O[C@H](CO)CC[C@@H]3O[C@@H]2CCc2ccc(-c3ccc(OC)cc3)cc2)nn1
AC50 [11]: 0.424 µM (active) | AC50 [12]: 37.4 µM (active) | AC50 [13]: 0.782 µM (active) | AC50 [14]: 0.426 µM (active) | AC50 [15]: 0.571 µM (active)

SMILES: COc1cccc(C#Cc2ccc([C@H]3[C@@H](CO)N4C(=O)CN(C(=O)c5ccccc5)C[C@H]34)cc2)c1
AC50 [11]: 1.03 µM (active) | AC50 [12]: 22.3 µM (active) | AC50 [13]: 0.791 µM (active) | AC50 [14]: 0.398 µM (active) | AC50 [15]: 0.53 µM (active)
